This is an account of results in ChEMBL document CHEMBL1136182, “Cage amines as the stopper inhibitors of cholinesterases” (Bioorg Med Chem Lett, 2003).

Each structure is given as a SMILES string. pKi: −log10 of the molar value.

Assay [1] deals with Acetylcholinesterase (Electrophorus electricus) (UniProt O42275). Description: Selectivity ratio of inhibition of acetylcholinesterase-AChE to that of inhibition of butyrylcholinesterase-BChE.
The target in the next assay is Butyrylcholinesterase (Equus caballus, UniProt Q9N1N9). Kind of assay: Inhibitory activity against Butyrylcholinesterase.
A further assay deals with Acetylcholinesterase (Electrophorus electricus, UniProt O42275). Description: Inhibitory activity against acetylcholinesterase.
Acetylcholinesterase, sequence (O42275 whole entry): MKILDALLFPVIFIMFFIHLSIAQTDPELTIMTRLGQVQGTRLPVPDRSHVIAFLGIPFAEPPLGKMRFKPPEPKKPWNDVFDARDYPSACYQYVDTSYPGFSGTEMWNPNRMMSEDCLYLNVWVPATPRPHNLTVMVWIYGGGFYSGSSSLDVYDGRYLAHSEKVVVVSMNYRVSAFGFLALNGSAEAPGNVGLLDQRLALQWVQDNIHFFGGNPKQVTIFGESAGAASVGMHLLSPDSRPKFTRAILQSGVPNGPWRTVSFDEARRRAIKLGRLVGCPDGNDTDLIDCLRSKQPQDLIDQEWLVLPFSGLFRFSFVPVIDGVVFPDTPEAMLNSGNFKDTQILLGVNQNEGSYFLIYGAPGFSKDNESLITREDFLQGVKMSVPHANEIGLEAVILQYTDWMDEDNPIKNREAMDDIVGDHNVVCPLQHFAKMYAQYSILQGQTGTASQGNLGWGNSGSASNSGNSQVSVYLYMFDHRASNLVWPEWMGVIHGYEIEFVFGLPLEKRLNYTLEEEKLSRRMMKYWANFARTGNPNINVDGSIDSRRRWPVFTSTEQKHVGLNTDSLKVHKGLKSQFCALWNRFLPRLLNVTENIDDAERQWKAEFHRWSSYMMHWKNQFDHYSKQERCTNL

Butyrylcholinesterase, sequence (Q9N1N9 whole entry): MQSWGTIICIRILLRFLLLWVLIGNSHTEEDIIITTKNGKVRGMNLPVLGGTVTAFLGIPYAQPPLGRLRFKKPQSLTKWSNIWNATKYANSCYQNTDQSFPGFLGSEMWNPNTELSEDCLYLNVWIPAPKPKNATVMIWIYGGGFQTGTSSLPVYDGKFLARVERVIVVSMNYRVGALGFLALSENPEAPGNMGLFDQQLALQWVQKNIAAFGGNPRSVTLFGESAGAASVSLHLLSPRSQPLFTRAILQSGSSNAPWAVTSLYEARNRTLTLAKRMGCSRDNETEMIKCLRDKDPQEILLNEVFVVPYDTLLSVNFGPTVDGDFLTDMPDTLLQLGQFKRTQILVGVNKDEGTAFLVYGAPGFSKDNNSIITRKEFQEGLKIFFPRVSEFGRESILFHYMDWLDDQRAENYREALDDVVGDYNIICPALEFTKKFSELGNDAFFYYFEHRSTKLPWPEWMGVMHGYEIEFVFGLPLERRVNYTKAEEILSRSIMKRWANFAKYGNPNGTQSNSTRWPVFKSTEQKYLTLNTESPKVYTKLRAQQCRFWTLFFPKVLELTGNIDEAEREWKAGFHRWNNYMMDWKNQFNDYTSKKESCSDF
Acetylcholinesterase (Electrophorus electricus), sequence (O42275 24-633 limits assumed): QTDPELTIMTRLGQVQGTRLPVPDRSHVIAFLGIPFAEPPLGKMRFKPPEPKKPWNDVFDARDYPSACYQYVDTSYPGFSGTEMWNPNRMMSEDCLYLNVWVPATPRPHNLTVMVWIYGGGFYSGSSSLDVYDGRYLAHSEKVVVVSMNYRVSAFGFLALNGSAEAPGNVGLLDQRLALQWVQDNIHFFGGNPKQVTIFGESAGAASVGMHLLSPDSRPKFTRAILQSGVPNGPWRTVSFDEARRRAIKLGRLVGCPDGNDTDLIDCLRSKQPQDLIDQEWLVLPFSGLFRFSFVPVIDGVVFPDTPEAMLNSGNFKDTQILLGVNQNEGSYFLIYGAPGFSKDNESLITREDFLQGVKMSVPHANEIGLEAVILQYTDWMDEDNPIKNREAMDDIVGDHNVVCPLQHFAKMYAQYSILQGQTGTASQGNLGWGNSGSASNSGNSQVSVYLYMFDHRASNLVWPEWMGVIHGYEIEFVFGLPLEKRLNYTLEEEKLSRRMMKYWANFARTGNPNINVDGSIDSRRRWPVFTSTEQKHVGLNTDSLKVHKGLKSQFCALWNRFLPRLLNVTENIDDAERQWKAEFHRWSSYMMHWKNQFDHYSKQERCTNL

The pKi is the negative decadic logarithm of the Ki, by convention in mol/L. A high value points to a small Ki. For `Clc1ccccc1CNC1C2N(Cc3ccccc3Cl)C3C(N1Cc1ccccc1Cl)N(Cc1ccccc1Cl)C1(CC1N2Cc1ccccc1Cl)N3Cc1ccccc1Cl` (centres undefined), the Ratio in assay [1] came to 3.9. The values for the pKi at Butyrylcholinesterase and at Acetylcholinesterase were 8.00 and 7.41, respectively.

Turning to `c1cc2c(cc1CNC1C3N(Cc4ccc5c(c4)OCO5)C4C(N1Cc1ccc5c(c1)OCO5)N(Cc1ccc5c(c1)OCO5)C1(CC1N3Cc1ccc3c(c1)OCO3)N4Cc1ccc3c(c1)OCO3)OCO2` (centres undefined), the Ratio in assay [1] amounted to 1. Further, the results for the pKi at Butyrylcholinesterase and on Acetylcholinesterase were 6.51 and 6.49, respectively.

Turning to `COc1cc(CNC2C3N(Cc4cc(OC)cc(OC)c4)C4C(N2Cc2cc(OC)cc(OC)c2)N(Cc2cc(OC)cc(OC)c2)C2(CC2N3Cc2cc(OC)cc(OC)c2)N4Cc2cc(OC)cc(OC)c2)cc(OC)c1` (centres undefined), the Ratio in assay [1] worked out at 2.2. Further, the pKi at Butyrylcholinesterase is 7.22; at Acetylcholinesterase, 6.89.
